From patent publication US11440880B2, “Thalidomide analogs and methods of use” (The USA, as represented by the Secretary, Department of …, priority 2015, dated 2022)

Columns and labels:
Assay type in all cases: cell-based, mouse
Parameters in all cases: key: NS=not significant; a “+” sign=anti-inflammatory or increased cell numbers; a “−” sign=cell toxicity or pro-inflammatory
[1] = system: nitrite levels in the culture media; experiment: Nitrite level (Griess Reagent System) in LPS-challenged RAW 264.7 cells; conditions: LPS 30 or 60 ng/mL, 24 h
Description: (§1) Nitrite levels in the culture media were measured by use of the Griess Reagent System (Promega, Madison, Wis.), following the manufacturer's protocol. The O.D. of unknown samples was read at 520 nm λ, compared to a sodium nitrite standard curve (1.5 μM to 100 μM) and nitrite measured media concentrations expressed as μM units. As the lowest nitrite concentration on the Griess Reagent System standard curve was 1.5 μM, this was chosen as the effective cutoff for defining measurable nitrite concentrations. TNF-α protein levels were measured by use of an ELISA specific for mouse TNF-α protein (BioLegend, San Diego, Calif.) and are expressed as a % change from their appropriate control or as pg/ml.
(§2) RAW 264.7 cells obtained from ATCC (Manassas, Va., USA) were grown in DMEM media supplemented with 10% FCS, penicillin 100 μg/ml and streptomycin 100 μg/ml, and maintained at 37° C. and 5% CO2. Cells were seeded in 24 well plates and, 24 hours later, were utilized in studies. One hour prior to the initiation of any study, the seeding media was replaced with fresh media (1 mL), and the cells were allowed to equilibrate at 37° C. and 5% CO2.
(§3) RAW 264.7 cells were challenged with LPS (Sigma, St Louis, Mo.: serotype 055:B5) from at a final concentration of 30 or 60 ng/mL. This concentration of LPS in RAW 264.7 cells induces a sub-maximal rise in both TNF-alpha and nitrite levels without a loss in cellular viability. This sub-maximal rise is useful for assessing whether the addition of an experimental drug can either lower or further raise levels of TNF-α and nitrite. Twenty four hours following the addition of LPS, conditioned media was harvested and analyzed for quantification of secreted TNF-α protein and nitrite levels. Fresh media was replaced into the wells and cell viability was then assessed.
(§4) Thalidomide and analogs were prepared in tissue culture grade DMSO (Sigma). RAW 264.7 cells were pretreated with thalidomide, analogues or vehicle one hour prior to a challenge with LPS. The effects of various concentrations of thalidomide analogues were assessed. All compounds were synthesized to a chemical purity of >99.5%, as assessed by chemical characterization by a combination of 1H NMR, 13C NMR and GC/MS analyses (Bruker AC-300 spectrometer, together with elemental analyses (Atlantic Microlab, Inc., Norcross, Ga.).

TNF-α protein = TNF-α protein level (ELISA) in LPS-challenged RAW 264.7 cells; conditions: LPS 30 or 60 ng/mL, 24 h
Description: as §1, §2, §3, §4

RAW 264.7 cells = experiment: Cell viability (CellTiter 96 AQueous One) of LPS-challenged RAW 264.7 cells
Description: The CellTiter 96® AQueous One Solution Cell Proliferation Assay (Promega, Madison, Wis.) is routinely used as an assay of cell proliferation, and was used according to the manufacturer's recommendations. Changes in cellular health status are determined by use of indirect measures related to the formation of a colored tetrazolium dye product that can be measured spectrophotometrically at 490 nm λ. […] Optical densities (expressed as O.D.s) were measured after various incubations.
as §2, §3, §4

SMILES	Nitrite ([1]; 1 μM)	Nitrite ([1]; 10 μM)	Nitrite ([1]; 30 μM)	TNF-α (TNF-α protein; 1 μM)	TNF-α (TNF-α protein; 10 μM)	TNF-α (TNF-α protein; 30 μM)	Viability (RAW 264.7 cells; 1 μM)	Viability (RAW 264.7 cells; 10 μM)	Viability (RAW 264.7 cells; 30 μM)	TNF-α (TNF-α protein; 3 μM)	Viability (RAW 264.7 cells; 3 μM)
CC1(C)[C@@H]2CC[C@]1(C)[C@H](N1Cc3c(N)cccc3C1=O)C2 [Compound 95]	NS	NS	+	NS	NS	NS	NS	+	+		
CC1(C)[C@@H]2CC[C@]1(C)[C@@H](N1Cc3c(cccc3[N+](=O)[O-])C1=O)C2 [Compound 96]	+	+	+	NS	+	+	−	−	NS		
CC1(C)[C@@H]2CC[C@]1(C)[C@@H](N1Cc3c(N)cccc3C1=O)C2 [Compound 97]	NS	NS	+	NS	+	NS	NS	NS	NS		
CC1(C)[C@@H]2CC[C@]1(C)[C@@H](N1C=C3C(=CC=C/C3=N\OO)C1=O)C2 [Compound 98]	+	+	+	SIG	+	+	NS	NS	NS		
O=C1c2cccc([N+](=O)[O-])c2CN1[C@@H]1C[C@H]2CC[C@@H]1C2 [Compound 99]	+	+	+	NS	NS	+	NS	−	−		
Nc1cccc2c1CN([C@@H]1C[C@H]3CC[C@@H]1C3)C2=O [Compound 100]	NS	NS	NS	NS	NS	NS	NS	NS	NS		
O=C1c2cccc([N+](=O)[O-])c2CN1[C@H]1C[C@H]2CC[C@@H]1C2 [Compound 101]	+	+	+	NS	NS	+	−	−	NS		
Nc1cccc2c1CN([C@H]1C[C@H]3CC[C@@H]1C3)C2=O [Compound 102]	NS	NS	NS	NS	NS	NS	NS	NS	NS		
CC1(C)[C@@H]2CC[C@H](CN3Cc4c(cccc4[N+](=O)[O-])C3=O)[C@H]1C2 [Compound 103]	+	+	NS	NS	+	SIG	NS	NS	SIG		
CC1(C)[C@@H]2CC[C@H](CN3Cc4c(N)cccc4C3=O)[C@H]1C2 [Compound 104]	−	−	−	NS	NS	NS	NS	NS	NS		
c1ccc2c(c1)CN=C2C1=NCc2ccccc21 [Compound 106]					NS	NS		+	+	NS	+
C[C@H]1[C@H](N2C(=O)C3C4C=CC(C4)C3C2=O)C[C@@H]2C[C@H]1C2(C)C (some centres unmarked) [Compound 120]					+			−			
